Experimental data taken from paper PMC2248166, “Quantitative peptide binding motifs for 19 human and mouse MHC class I molecules derived using positional scanning combinatorial peptide libraries” (Immunome Research, 2008).
Where a SMILES comes first, the peptide text is derived from it.

Target: HLA A*3201 (Homo sapiens, UniProt P04439, A270S/D101S/D185E/E176V/E277Q/F133L/G103R/G107R/G231S/H175R/I121M/I218V/I322F/K168Q/L105A/L300P/L318F/M331R/P208A/P217A/Q94H/R106L/R138Q/S129P/T104I/T323A/T345S/V100E/V321M/V358M)
Test: biochemical
Format: binding

Structure (SMILES)	IC50 [nM]
CC[C@H](C)[C@H](NC(=O)[C@@H](NC(=O)[C@@H](NC(=O)[C@H](CC(N)=O)NC(=O)[C@H](Cc1ccccc1)NC(=O)[C@H](Cc1ccccc1)NC(=O)[C@@H](NC(=O)[C@@H](NC(=O)[C@@H](N)C(C)C)C(C)C)[C@@H](C)CC)[C@@H](C)O)[C@@H](C)CC)C(=O)O [3102.0431] (H-VVIFFNTII-OH)	15
CC[C@H](C)[C@H](NC(=O)[C@H](CC(N)=O)NC(=O)[C@H](CC(N)=O)NC(=O)[C@H](CC(C)C)NC(=O)[C@@H](NC(=O)[C@H](CC(N)=O)NC(=O)[C@H](Cc1ccc(O)cc1)NC(=O)[C@H](CC(C)C)NC(=O)[C@@H](N)Cc1c[nH]cn1)[C@@H](C)CC)C(=O)O [3102.0432] (H-HLYNILNNI-OH)	73
CC[C@H](C)[C@H](NC(=O)[C@H](CO)NC(=O)[C@@H](NC(=O)[C@H](CCCCN)NC(=O)CNC(=O)[C@H](Cc1ccccc1)NC(=O)[C@H](Cc1ccccc1)NC(=O)[C@@H](NC(=O)[C@@H](N)CCCNC(=N)N)[C@@H](C)CC)[C@@H](C)O)C(=O)O [3102.0433] (H-RIFFGKTSI-OH)	1.3
CC[C@H](C)[C@H](NC(=O)[C@@H](NC(=O)[C@@H](NC(=O)[C@H](CCCCN)NC(=O)[C@H](CC(N)=O)NC(=O)[C@H](CC(N)=O)NC(=O)[C@H](C)NC(=O)[C@H](CC(C)C)NC(=O)[C@@H](N)CCCNC(=N)N)C(C)C)[C@@H](C)O)C(=O)O [3102.0434] (H-RLANNKVTI-OH)	1.5
CC[C@H](C)[C@H](N)C(=O)N[C@H](C(=O)N[C@H](C(=O)N[C@@H](Cc1ccccc1)C(=O)N[C@@H](Cc1ccccc1)C(=O)N[C@H](C(=O)N[C@H](C(=O)N[C@@H](CC(C)C)C(=O)N[C@H](C(=O)O)[C@@H](C)CC)C(C)C)[C@@H](C)CC)[C@@H](C)CC)[C@@H](C)CC [3102.0435] (H-IIIFFIVLI-OH)	14
CC[C@H](C)[C@H](N)C(=O)N[C@H](C(=O)N[C@@H](Cc1ccccc1)C(=O)N[C@@H](Cc1ccccc1)C(=O)N[C@H](C(=O)N[C@H](C(=O)N[C@@H](CC(C)C)C(=O)N[C@H](C(=O)N[C@@H](CC(C)C)C(=O)O)[C@@H](C)CC)C(C)C)[C@@H](C)CC)[C@@H](C)CC [3102.0436] (H-IIFFIVLIL-OH)	12
CC[C@H](C)[C@H](NC(=O)CNC(=O)[C@@H](NC(=O)[C@H](C)NC(=O)[C@@H](NC(=O)[C@H](CCCNC(=N)N)NC(=O)[C@H](CCSC)NC(=O)[C@H](CC(C)C)NC(=O)[C@@H](N)CCSC)C(C)C)C(C)C)C(=O)O [3102.0437] (H-MLMRVAVGI-OH)	0.69
CC(C)C[C@H](NC(=O)[C@H](CO)NC(=O)[C@H](CC(N)=O)NC(=O)[C@H](CCCNC(=N)N)NC(=O)[C@H](CC(C)C)NC(=O)CNC(=O)[C@H](Cc1ccc(O)cc1)NC(=O)[C@@H](NC(=O)[C@@H](N)CCCNC(=N)N)[C@@H](C)O)C(=O)O [3102.0438] (H-RTYGLRNSL-OH)	0.63
CC[C@H](C)[C@H](NC(=O)CNC(=O)[C@H](CC(N)=O)NC(=O)[C@H](CO)NC(=O)[C@@H](NC(=O)CNC(=O)[C@H](CC(N)=O)NC(=O)[C@@H](NC(=O)CN)[C@@H](C)O)[C@@H](C)CC)C(=O)O [3102.0439] (H-GTNGISNGI-OH)	20
CC[C@H](C)[C@H](NC(=O)[C@H](CCC(=O)O)NC(=O)[C@H](CS)NC(=O)[C@@H](NC(=O)[C@@H](N)CO)[C@@H](C)CC)C(=O)N[C@H](C(=O)N[C@@H](Cc1ccc(O)cc1)C(=O)N[C@@H](CO)C(=O)N[C@@H](Cc1ccccc1)C(=O)O)C(C)C [3102.0440] (H-SICEIVYSF-OH)	0.35
CC[C@H](C)[C@H](N)C(=O)N[C@H](C(=O)N[C@@H](Cc1c[nH]c2ccccc12)C(=O)N[C@@H](CCCCN)C(=O)NCC(=O)N[C@H](C(=O)N[C@@H](Cc1ccc(O)cc1)C(=O)N[C@H](C(=O)N[C@@H](Cc1ccc(O)cc1)C(=O)O)[C@@H](C)O)[C@@H](C)CC)[C@@H](C)CC [3102.0441] (H-IIWKGIYTY-OH)	3.3
CC(C)C[C@H](NC(=O)[C@H](CO)NC(=O)[C@@H](N)CCCCN)C(=O)N[C@@H](CCCCN)C(=O)N[C@@H](CCCCN)C(=O)N[C@H](C(=O)N[C@@H](Cc1ccc(O)cc1)C(=O)N[C@H](C(=O)N[C@@H](Cc1ccccc1)C(=O)O)[C@@H](C)O)C(C)C [3102.0442] (H-KSLKKVYTF-OH)	0.49
CC[C@H](C)[C@H](NC(=O)[C@H](CO)NC(=O)[C@H](CCCCN)NC(=O)[C@H](Cc1ccccc1)NC(=O)[C@H](CC(C)C)NC(=O)[C@@H](NC(=O)[C@@H](N)CCSC)[C@@H](C)O)C(=O)N[C@@H](CC(C)C)C(=O)N[C@@H](Cc1ccccc1)C(=O)O [3102.0443] (H-MTLFKSILF-OH)	11
CC[C@H](C)[C@H](NC(=O)[C@H](CO)NC(=O)[C@H](C)NC(=O)[C@H](Cc1ccc(O)cc1)NC(=O)[C@@H](NC(=O)[C@H](CCC(=O)O)NC(=O)[C@H](CC(N)=O)NC(=O)[C@@H](NC(=O)[C@@H](N)CC(C)C)[C@@H](C)O)[C@@H](C)CC)C(=O)O [3102.0445] (H-LTNEIYASI-OH)	13
CC[C@H](C)[C@H](NC(=O)[C@H](CC(N)=O)NC(=O)[C@H](CCSC)NC(=O)[C@H](CCSC)NC(=O)[C@@H](N)Cc1ccc(O)cc1)C(=O)N[C@@H](Cc1ccc(O)cc1)C(=O)N[C@@H](CC(C)C)C(=O)N[C@@H](CC(N)=O)C(=O)N[C@@H](Cc1ccccc1)C(=O)O [3102.0446] (H-YMMNIYLNF-OH)	2.9
CC[C@H](C)[C@H](NC(=O)[C@H](CCSC)NC(=O)[C@H](CC(=O)O)NC(=O)[C@H](CCSC)NC(=O)[C@@H](N)CC(C)C)C(=O)N[C@H](C(=O)N[C@@H](CC(C)C)C(=O)N[C@@H](CO)C(=O)N[C@@H](CC(C)C)C(=O)O)[C@@H](C)O [3102.0448] (H-LMDMITLSL-OH)	30
CC[C@H](C)[C@H](NC(=O)[C@H](CO)NC(=O)[C@@H](NC(=O)[C@@H](NC(=O)[C@H](Cc1ccc(O)cc1)NC(=O)[C@H](CC(N)=O)NC(=O)[C@H](CO)NC(=O)[C@H](CC(C)C)NC(=O)[C@@H](N)Cc1c[nH]cn1)[C@@H](C)CC)C(C)C)C(=O)O [3102.0449] (H-HLSNYIVSI-OH)	0.99
CC[C@H](C)[C@H](NC(=O)[C@@H](NC(=O)[C@H](CC(N)=O)NC(=O)[C@H](CO)NC(=O)[C@H](CC(N)=O)NC(=O)[C@H](C)NC(=O)[C@@H](NC(=O)[C@@H](NC(=O)[C@@H](N)CO)[C@@H](C)O)[C@@H](C)CC)[C@@H](C)CC)C(=O)O [3102.0451] (H-STIANSNII-OH)	14
CC[C@H](C)[C@H](NC(=O)[C@H](CO)NC(=O)[C@H](CC(C)C)NC(=O)[C@H](CO)NC(=O)[C@H](CCCNC(=N)N)NC(=O)[C@H](Cc1c[nH]c2ccccc12)NC(=O)[C@@H](NC(=O)[C@@H](NC(=O)[C@H](C)N)[C@@H](C)O)[C@@H](C)CC)C(=O)O [3102.0452] (H-ATIWRSLSI-OH)	1.9
CC[C@H](C)[C@H](NC(=O)[C@H](CCC(N)=O)NC(=O)[C@H](CCC(=O)O)NC(=O)[C@H](CC(=O)O)NC(=O)[C@@H](NC(=O)[C@@H](N)CCSC)[C@@H](C)O)C(=O)N[C@@H](Cc1ccc(O)cc1)C(=O)N[C@@H](C)C(=O)N[C@@H](Cc1ccccc1)C(=O)O [3102.0453] (H-MTDEQIYAF-OH)	18
CC[C@H](C)[C@H](NC(=O)[C@@H](NC(=O)[C@H](CC(C)C)NC(=O)[C@H](CC(C)C)NC(=O)[C@H](CC(N)=O)NC(=O)[C@H](Cc1ccc(O)cc1)NC(=O)[C@H](CCSC)NC(=O)[C@H](CC(C)C)NC(=O)[C@@H](N)CC(C)C)[C@@H](C)O)C(=O)O [3102.0454] (H-LLMYNLLTI-OH)	72
CC[C@H](C)[C@H](NC(=O)[C@@H](NC(=O)[C@@H](NC(=O)[C@H](CC(C)C)NC(=O)[C@H](CC(C)C)NC(=O)[C@H](CC(N)=O)NC(=O)[C@H](Cc1ccc(O)cc1)NC(=O)[C@H](CCSC)NC(=O)[C@@H](N)CC(C)C)[C@@H](C)O)[C@@H](C)CC)C(=O)O [3102.0455] (H-LMYNLLTII-OH)	30
CC[C@H](C)[C@H](NC(=O)[C@@H](N)CCCCN)C(=O)N[C@@H](CC(N)=O)C(=O)N[C@@H](CC(N)=O)C(=O)N[C@@H](Cc1ccccc1)C(=O)N[C@@H](C)C(=O)N[C@@H](CC(N)=O)C(=O)N[C@@H](CCC(=O)O)C(=O)N[C@@H](Cc1ccccc1)C(=O)O [3102.0456] (H-KINNFANEF-OH)	2.1
CC[C@H](C)[C@H](NC(=O)[C@@H](NC(=O)[C@@H](N)CCCCN)[C@@H](C)O)C(=O)N[C@@H](Cc1ccccc1)C(=O)N[C@@H](CC(C)C)C(=O)N[C@@H](CO)C(=O)N[C@@H](CCC(=O)O)C(=O)N1CCC[C@H]1C(=O)N[C@@H](Cc1ccc(O)cc1)C(=O)O [3102.0457] (H-KTIFLSEPY-OH)	2.9
CSCC[C@H](NC(=O)[C@@H](NC(=O)[C@@H](N)CCCCN)[C@@H](C)O)C(=O)N[C@@H](C)C(=O)N1CCC[C@H]1C(=O)N[C@H](C(=O)N[C@@H](Cc1c[nH]cn1)C(=O)N[C@H](C(=O)N[C@@H](Cc1ccc(O)cc1)C(=O)O)[C@@H](C)O)C(C)C [3102.0458] (H-KTMAPVHTY-OH)	4.6
CC[C@H](C)[C@H](NC(=O)[C@H](Cc1ccc(O)cc1)NC(=O)[C@H](CC(C)C)NC(=O)[C@H](CO)NC(=O)[C@@H](N)CCCCN)C(=O)N[C@H](C(=O)N[C@@H](CC(N)=O)C(=O)N[C@H](C(=O)N[C@@H](CC(C)C)C(=O)O)[C@@H](C)O)[C@@H](C)O [3102.0459] (H-KSLYITNTL-OH)	0.52
CC[C@H](C)[C@H](NC(=O)[C@H](CO)NC(=O)[C@H](CCSC)NC(=O)[C@H](CC(C)C)NC(=O)[C@@H](N)CCCNC(=N)N)C(=O)N[C@@H](CC(N)=O)C(=O)N[C@@H](CCCNC(=N)N)C(=O)NCC(=O)N[C@@H](Cc1ccccc1)C(=O)O [3102.0465] (H-RLMSINRGF-OH)	3
CC[C@H](C)[C@H](NC(=O)[C@H](Cc1ccc(O)cc1)NC(=O)[C@@H](NC(=O)[C@@H](NC(=O)[C@@H](NC(=O)[C@H](CCSC)NC(=O)[C@@H](NC(=O)[C@@H](N)CCCCN)[C@@H](C)O)[C@@H](C)O)[C@@H](C)O)C(C)C)C(=O)N[C@@H](CC(C)C)C(=O)O [3102.0466] (H-KTMTTVYIL-OH)	14
